Measured values: article PMC5677254, “Design, Synthesis, and Characterization of N-Oxide-Containing Heterocycles with in Vivo Sterilizing Antitubercular Activity” (Journal of Medicinal Chemistry, 2017)
≈ marks a conversion by molar mass, not a printed value. Where “and” joins values, the source holds several entries; their conditions need not be identical. Equal values may be shown once. Entries after “also recorded” stand apart in the source; their conditions may differ. Read-outs that look alike come from different tables or passages of the source.

Tests used:
[1] = test system: M. tuberculosis H37Rv; test: Microarray gene expression analysis; assay type: cell-based, Mycobacterium tuberculosis; settings: 4 h of exposure at 2× MIC, versus vehicle
[2] = test system: BALB/c mice; test: Tolerability test in BALB/c mice and toxicological analysis; settings: 10 days
[3] = test system: cytochrome P450 isoforms (all isoforms tested); test: in vitro; settings: human, microsomes
[4] = test system: M. tuberculosis Erdman; test: Infection and treatment: efficacy against acute TB in mice; assay type: in vivo, mouse; settings: 200 mg/kg in microemulsion, once daily oral gavage, 5 days/week, day 10 to 29 postinfection, BALB/c mice
[5] = test system: human plasma; test: Plasma protein binding assay (rapid equilibrium dialysis); assay type: in vitro ADME; settings: 5 µM, 4 h at 37°C
Protocol: (§1) In vitro hydrolysis was performed by HPLC method using a Shimadzu HPLC model CBMH20A (Shimadzu®) and an Agilent® Eclipse XDB C18 column (250 × 4.6 mm, 5 µm). The isocratic flow was 60:40 (water:acetonitrile, v/v) and the flow rate was 1.0 mL/min. The volume injected was 20.0 µL and the wavelength in the detector (UVHVIS) was 210 nm. […]
(§2) of 100 µg/mL. This solution was then diluted to 20 µg/mL using two different PBS buffers to provide the following pH values: 5.5 and 7.4. During the assay, all samples were maintained at constant agitation using a shaker (400 rpm) at 37°C. The aliquots were taken from the solution at the following times: 0, 1, 2, 4, 8, 10, 20, and 24 h. All analyses were conducted in triplicate, and the results were expressed as the averages of the concentrations in percentages (±standard error of the […]
(§3) Plasma Protein Binding Assay […]
of the mixture in a RED (Rapid Equilibrium Dialysis, Pierce) device against PBS and incubated on an orbital shaker for 4 h at 37°C. Aliquots from plasmaH and PBSHbased samples were collected, an equal volume of PBS was added to the plasma sample, and an equal volume of plasma was added to the PBS sample. […] The samples were centrifuged and the supernatant was recovered and analyzed by Liquid chromatography–mass spectrometry (LCHMS)/MS. […]

[6] = test system: Candida albicans (ATCC 10231); test: Spectrum of activity, OD570 after 48 h; assay type: cell-based; settings: ATCC10231, read-out: MIC90 (antimicrobial activity)
Protocol: (§4) Determination of Minimal Inhibitory Concentration (MIC90) Against Bacteria in Dormant […]
(§5) The selective compounds (SI ≥ 10) were tested against the mycobacterium in a dormant state. The cultures were thawed, diluted in Middlebrook 7H12 broth, and sonicated for 5 s. The cultures were diluted to obtain the concentration between […] and 2 × 10^6 CFU/mL. TwoHfold serial dilutions of the compounds were prepared in a volume of […] in white 96Hwell microtiter plates, followed by the addition of […] of the cell suspension. The microplate cultures were placed under anaerobic conditions (oxygen concentration less than 0.16%) by using an Anoxomat model WS8080 (MART Microbiology) followed by two cycles of evacuation and filling with a mixture of 10% hydrogen (H2), 5% carbon dioxide (CO2), and the balance with nitrogen (N2). An anaerobic indicator strip was placed inside the chamber to visually confirm the removal of oxygen. The plates were incubated at 37°C for 10 days and then transferred to an ambient gaseous condition (5% CO2H enriched air) incubator for a 28 h “recovery.” On day 11 (after the 28Hh aerobic recovery), we determined the luminescence and calculated the MIC90.4
(§6) To establish the spectrum activity, we determined the MIC90 against E. coli (ATCC 25922) and S. aureus (ATCC 29213) by measuring the optical density at 570 nm after 16 h of incubation in Mueller–Hinton II broth (Becton Dickinson, Sparks; Maryland, United States) and against C. albicans (ATCC 10231) at OD570 after 48 h in Cellgro RPMI 1640 medium (Mediatech Inc., Manassas, Virginia, United States). The MIC was defined as the lowest concentration resulting in 90% reduction in absorption relative to that of untreated control cultures.
(§7) Determination of Minimal Inhibitory Concentration Against Isogenic Monoresistant Strains

[7] = test system: BALB/c mice; settings: H&E, group treated with compound 8
[8] = Caco-2 permeability assay; assay type: in vitro ADME; settings: human, basolateral to apical
Protocol: as §1, §2, §3
(§8) of the mixture in a RED (Rapid Equilibrium Dialysis, Pierce) device against PBS and incubated on an orbital shaker for 4 h at 37°C. […] The samples were centrifuged and the supernatant was recovered and analyzed by Liquid chromatography–mass spectrometry (LCHMS)/MS. […]
(§9) the twoHday interval. […] Similarly, for basolateral to apical (B→A) permeability, the compound was added to the B side and the amount of permeation was determined on the A side. […]

[9] = test system: Caco-2 cells; test: Caco-2 permeability assay; assay type: in vitro ADME
Protocol: as §1, §2, §3, §8, §9

[10] = Cytotoxicity against MRC-5 cell line; settings: human, cytotoxicity IC50, MRC-5 cell line
[11] = test system: M. tuberculosis H37Rv (ATCC 27294) in J774A.1 macrophages; test: Intramacrophage activity; assay type: cell-based, Mycobacterium tuberculosis
[12] = test system: Mtb H37Rv (ATCC 27294); test: Resazurin microtiter assay (REMA), MIC90 against bacteria in active state; assay type: cell-based; settings: Mycobacterium tuberculosis
[13] = test system: M. tuberculosis H37Rv (ATCC 27294); test: Time-kill curves (bactericidal kinetics); assay type: cell-based, Mycobacterium tuberculosis
[14] = test system: mouse peripheral blood reticulocytes; settings: 50, 100, 200 and 500 mg/kg by gavage, Swiss mice
[15] = test system: Escherichia coli (ATCC 25922); test: Spectrum of activity, OD570 after 16 h; assay type: cell-based; settings: ATCC25922, read-out: MIC90 (antimicrobial activity)
Protocol: as §4, §5, §6, §7

[16] = test system: Staphylococcus aureus (ATCC 29213); test: Spectrum of activity, OD570 after 16 h; assay type: cell-based; settings: ATCC29213, read-out: MIC90 (antimicrobial activity)
Protocol: as §4, §5, §6, §7

[17] = 200 mg/kg daily oral, vs control group

In the case of `O=C(N/N=C/c1ccc2no[n+]([O-])c2c1)c1ccncc1` [Compound 8, (E)-6-((2-Isonicotinoylhydrazono)methyl)benzo[c][1,2,5]oxadiazole 1-Oxide], the “effect on gene expression” value [1] is reported as “significant upregulation in the majority of ribosomal genes as well as all genes encoding subunits of ATP synthase”, the “behavior parameters (hippocratic screening)” value ([2]; 200 mg/kg daily oral gavage) is reported as “No significant variation in the behavior” and the “alanine aminotransferase in plasma” value [2, 17] is reported as “no significant differences”. The “alkaline phosphatase in plasma” value [2, 17] was “no significant differences”, the “aspartate aminotransferase in plasma” value [2, 17] was “no significant differences” and the “changes in the weight of organs (heart, lungs, spleen, kidneys, liver)” value [2, 17] was “No statistically significant difference”. The IC50 [3] was greater than 15 µM, the “Mtb colonies (CFU) in homogenized lungs” value [4] was “reduction of Mtb to undetectable levels; also recorded: no colonies were observed; also recorded: No detectable Mtb” and the “human plasma protein binding (% free)” value [5] was 46.5 % free. The MIC90 [6] was greater than 200 µM, the histology of kidneys [7] was “morphologically normal” and the Papp B→A [8] was 3.9 ×10⁻⁶ cm/s. The Caco-2 permeability profile [9] was “good permeability profile”, the IC50 [10] was 147 µg/mL (≈ 519 µM) and the intracellular inhibition [11] was “around 90%”. The MIC90 ([12]; actively replicating M. tuberculosis H37Rv, REMA, read-out: MIC90) was 1.1 µM and 0.31 µg/mL, the MIC90 ([12]; supplementary CSV, read-out: Mtb MIC90) was 1.1 µM (≈ 0.312 µg/mL) and the “reduction of CFU (sterilization of cultures)” value ([13]; after 48 h of exposure, 41.24 μM) was roughly 6.7 log10. For the same compound, the bactericidal profile ([13]; time-kill kinetic experiments up to 15 days) was “bactericidal with an early bactericidal effect”, the “genotoxicity (micronucleated reticulocytes)” value [14] was “not genotoxic at any concentration tested” and the MIC90 [15] was greater than 200 µM. For the same compound, the MIC90 [16] was greater than 200 µM.
